Entries after “also recorded” stand apart in the source; their conditions may differ.
Key:
transferrin = assay: Reducing and non-reducing Western blots of transferrin in substantia nigra; assay type: in vivo; details: chronic rotenone treatment vs control animal
Text: In the lower panel, left and right, a loading control (39 kDa subunit of mitochondrial complex I) ensures that the initial amount of protein was the equal for all the lanes.

[1] = tested on: dopaminergic neurons of the substantia nigra; assay: Histological labeling of oxidized thiols in substantia nigra of rotenone-treated rats; assay type: in vivo, Lewis rats; details: chronic rotenone treatment vs control animal
Protocol: (§1) Histological labeling of oxidized thiols. Brains were fixed in 4% paraformaldehyde and processed as described (Betarbet, R.; Sherer, T. B.; MacKenzie, G.; Garcia-Osuna, M.; Panov, A. V.; Greenamyre, J. T. Chronic systemic pesticide exposure reproduces features of Parkinson's disease. Nat Neurosci 3:1301-1306; 2000). After cutting with a freezing microtome, sections were treated immediately in alkylating buffer (100 mM IAM, 100 mM NEM, TrisHCl, pH 6.8) to block free thiols. For cell culture studies, cells were seeded and cultured on coverslips, then fixed in 4% paraformaldehyde, 0.02% Triton-X100 supplemented with 100 mM IAM, 100 mM NEM to block free thiols. After three washes in PBS—10 minutes at room temperature—disulfides were reduced with 25 mM TCEP in PBS for 20 minutes. TCEP was omitted in the control reaction. The samples were labeled with CPM (0.5 mM final) in TrisHCl (0.1 M, pH 6.8) and then washed three times, for 10 minutes, in PBS.
Following the thiol labeling, immunohistochemistry was performed according to standard procedures. Briefly, after a blocking step in 10% serum, samples were incubated over-night with primary antibody (tyrosine hydroxylase, Mab318, Chemicon, Temecula, Calif., 1:2000; OX42, MCA 275G AbD Serotec, Oxford, UK, 1:150; GFAP, Mab 3402, Chemicon, Temecula, Calif., 1:1000). Fluorescently labeled secondary antibodies were used for detection. […]

[2] = tested on: mitochondrial proteins containing oxidized thiols; assay: Thiol-sepharose affinity purification of oxidized mitochondrial proteins from brain regions of rotenone-treated rats; assay type: in vivo, Lewis rats; details: rotenone animals vs control
Text: Preparation of affinity resin. Activated thiol-sepharose resin 4B (Sigma, St. Louis, Mo., USA) was used in previous studies to purify thiol-containing proteins (Egorov, T. A.; Svenson, A.; Ryden, L.; Carlsson, J. A rapid and specific method for isolation of thiol-containing peptides from large proteins by thiol-disulfide exchange on a solid support. Proc Natl Acad Sci USA 72:3029-3033; 1975); the resin extent of binding was 1 micromol of thiols per mL of medium. The resin rehydrated in milliQ-grade distilled water, 30 minutes, gently shaking at 4° C. […]
In the first technique (FIG. 20), a starting sample (e.g., purified mitochondria from the ventral midbrain of control and rotenone-treated rats) is homogenized and then free thiols are alkylated. […] At this point, the sample can be run over a thiol affinity column and the eluate can be analyzed by SDS-PAGE and Coomassie staining. In an alternative strategy, after the reduction the sample can be reacted with ICAT (isotope coded affinity tag) reagents for mass spectrometry (Gygi, S P, Rist, B, Gerber, S A, Turecek, F, Gelb, M H and Aebersold, R, (1999) Quantitative analysis of complex protein mixtures using isotope-coded affinity tags. Nat Biotechnol 17: 994-9).

Hsp60 = assay: FRET by acceptor photobleaching between FITC-NN carbonyl label and Cy3 anti-Hsp60 antibody in cells; assay type: cell-based; details: rotenone-treated cells
Text: Anti-Hsp60 (Stressgen, used at 1:500) was conjugated with Cy3. The procedure can be carried out in a 96-well plate, which can be analyzed with a micro-plate spectrofluorometer. FRET between FITC-NN and a Cy3-labeled specific antibody can be studied to determine if the two fluorophores are in close proximity (<50 Å) and therefore if the protein of interest is oxidized. […] First, the acceptor fluorophore is photobleached over four cycles. In FIG. 3, Cy3 was the acceptor fluorophore and the protein of interest was Hsp60, where Cy3 conjugated with anti-Hsp60 antibody. Second, the emission of the acceptor fluorophore and of the donor fluorophore are determined and compared. If a significant increase in the donor emission is observed after photobleaching the acceptor fluorophore, then the two fluorophores are determined to be in close proximity. […] Therefore, the two fluorophores are in close proximity and indicate that the protein of interest, here Hsp60, is oxidized.

[3] = tested on: human neuroblastoma cells; assay: Fluorescent labeling of protein carbonyls (FITC-hydrazide) in rotenone-treated cells; assay type: cell-based; details: 50 nM rotenone, 24 hours, vs vehicle-treated cells
Protocol: Cells are fixed in cold methanol for 10 minutes at −20° C. Paraformaldehyde and other […] group-containing (and therefore carbonyl group-containing) fixatives should be avoided. The method can be successfully applied to tissues as well.
Carbonyls are labeled with fluorescein-conjugated hydrazide (FITC-NN, FIG. 1, Molecular Probes, cat #F-121). F121 is prepared fresh in dimethyl-formamide. As the reaction between the hydrazine and the carbonyls occurs in acidic environment, the labeling is carried out in 50 mM sodium acetate (pH 4). FITC-NN is used 2 microM final; incubation is carried on 2 hours at room temperature.
Samples are washed in phosphate buffer solution (PBS) for 5 minutes; this step is repeated three times.
From this step onward, a classical immunohistochemistry staining can be performed to detect proteins of interest.
Images are acquired with a laser scanning confocal microscope.

substantia nigra = assay: Imaging of carbonyls in substantia nigra of rotenone-treated animals; assay type: in vivo; details: rotenone-treated animal vs control animal
Text: To detect carbonyls in fixed slices and perform microscopy studies, fluorescein-conjugated hydrazine is used (FITC-hydrazine, please see FIG. 19). As a positive control, carbonyl formation is induced by metal-catalyzed oxidation, treating the samples with iron (Fe^3+) and ascorbate (Amici, A, Levine, R L, Tsai, L and Stadtman, E R, (1989) Conversion of amino acid residues in proteins and amino acid homopolymers to carbonyl derivatives by metal-catalyzed oxidation reactions. J Biol Chem 264: 3341-6 and Halliwell, B and Gutteridge, J M, (1990) Role of free radicals and catalytic metal ions in human disease: an overview. Methods Enzymol 186: 1-85). In the confocal studies, a negative control can be performed preincubating the fixed slices with an excess of DNPH.
Protein carbonyls. Another oxidative modification of proteins is carbonyl formation. Typically, carbonyls are assayed by reacting protein homogenates with hydrazine compounds (e.g., dinitrophenylhydrazine; DNPH) and then measuring the reaction product spectrophotometrically, or with antibody-based techniques. We have used a fluorescent hydrazine compound to directly label carbonyls (FIG. 19). As with thiol labeling, this technique is amenable to FRET so that candidate proteins can be examined for carbonyl content and changes therein in pesticide intoxication.

dopaminergic neurons = assay: Tyrosine hydroxylase, transferrin and oxidized thiol imaging in dopaminergic neurons treated with rotenone; assay type: cell-based; details: cells treated with rotenone vs control
[4] = tested on: SH-SY5Y human neuroblastoma cells; assay: Histochemical detection of oxidized thiols (disulfides) with CPM in cells; assay type: cell-based; details: tBH 1 mM vs vehicle control
Protocol: as §1
Images were acquired using a laser scanning confocal microscope. The microscope was equipped with a spectral detector technology that provides precise wavelength separation of the emitted light, preventing light leakage between different fluorophores. The following detection ranges were used for each fluorophore: 450 nm-480 nm for UV probes; 515 nm-535 nm for Alexa488; 560 nm-574 nm for Cy3. […]

thioredoxin-1 (trx-1) [5] = assay: FRET between thiol-bound CPM and Alexa488-labeled trx-1 antibody in cells; assay type: cell-based; details: tBH-treated cells vs baseline
Protocol: as §1, with “The samples were labeled with CPM (0.5 mM final) in TrisHCl (0.1 M, pH 6.8) and then washed three times, for 10 minutes, in PBS.” left out
Direct FRET was detected by reading the acceptor emission (FITC derivative conjugated antibody) at 520 nm while exciting the donor (CPM) with the 405 nm laser. Alternatively, FRET was detected by acquiring the donor (CPM) emission before and after photobleaching of the acceptor fluorophore (Alexa488) with the 488 nm laser. FRET efficiency (Feff) was calculated by the confocal software (version 1.5) according to the equation Feff=1−(empre/empost), where Feff=FRET efficiency, empre=donor emission prebleaching, empost=donor emission post bleaching.

thioredoxin-1 (trx-1) [6] = assay: Redox western blot (10 kDa PEG-maleimide) of thioredoxin-1 in cells; assay type: cell-based; details: low millimolar concentrations of tBH
Protocol: Western blot analysis to detect proteins with oxidized cysteines. Cells were lysed in alkylating buffer (0.1M TrisHCl pH 6.8, 1% SDS, 100 mM IAM, 100 mM NEM). The lysate was sonicated on ice to disrupt high molecular weight DNA and incubated 30 minutes at room temperature to allow total alkylation of free Cys residues. 200 μg of alkylated proteins were precipitated with 5 volumes of ice-cold acetone and resuspended in 50 microliters of Tris-SDS buffer (0.1M TrisHCl, pH 7.4, 1% SDS). Disulfides were reduced by adding TCEP 5 mM final concentration. The samples were incubated 20 minutes at room temperature to allow complete reduction of disulfides to thiols. TCEP was removed with Micro Bio-spin Chromatography columns 6 (BIORAD, Hercules, Calif.). After the filtration step, the samples were in about 50 μL of 10 mM TrisHCl pH 7.4 (volume was adjusted to 50 μL as necessary). SDS was added to a 1% final concentration.
To label the previously oxidized (and now reduced) cysteines, polyethylene-glycol-conjugated maleimide (molecular weight 10 kDa, SunBio, Orinda, Calif.) was added to 50 micrograms of proteins, 1 mM final concentration, from a 10 mM stock in Tris-SDS buffer. After 1 hour incubation at room temperature, samples were precipitated with ice cold acetone and resuspended in 50 μL of SDS electrophoresis loading buffer. 10 μL (about 10 μg) were used for western blot analysis. […]

C=C(C)[C@H]1Cc2c(ccc3c2O[C@@H]2COc4cc(OC)c(OC)cc4[C@@H]2C3=O)O1 [rotenone]
oxidized transferrin form in non-reducing gel (transferrin): higher molecular weight form | oxidized thiols in nigrostriatal dopaminergic (TH-positive) neurons [1]: remarkable and very selective increase in oxidized thiols; also recorded: marked increase in oxidized thiols | oxidized mitochondrial proteins eluted from thiol affinity chromatography, striatum ([2]; striata): No major differences | oxidized mitochondrial proteins eluted from thiol affinity chromatography, substantia nigra ([2]; substantia nigra (ventral midbrain)): marked increase in thiol oxidation; also recorded: dramatic increase in oxidized proteins; also recorded: striking increase of oxidized proteins | FITC (donor) emission after photobleaching of Cy3 acceptor; indicates Hsp60 is oxidized (Hsp60): significant increase in FITC emission | carbonyls (green fluorescence) [3]: detectable increase; also recorded: large increase in carbonyls | carbonyls in substantia nigra (substantia nigra): marked increase in carbonyls | transferrin (trf) level, colocalized with oxidized thiols by FRET (dopaminergic neurons): accumulation of transferrin

CC(C)(C)OO [tBH, tert-butyl-hydroperoxide]
oxidized thiols (disulfides) labeling [4]: remarkable increase in disulfides; also recorded: dramatic increase of thiol labeling | FRET between CPM and Alexa488 trx-1 antibody (thiol oxidation of Trx-1) (thioredoxin-1 (trx-1) [5]): clear increase in the signal; also recorded: marked increase in direct FRET | thiol oxidation (disulfide formation) in trx-1 by redox western blot (thioredoxin-1 (trx-1) [6]): quickly induced the formation of disulfides in trx-1; also recorded: induced thiol oxidation in thioredoxin-1
